Our source for the CMC and pKa values is ChEMBL document CHEMBL1124074, “Bile acids with a cyclopropyl-containing side chain. 3. Separation, identification, and properties of all four stereoisomers of 3 alpha,7 beta-dihydroxy-22,23-methylene-5 beta-cholan-24-oic acid” (J Med Chem, 1988).

Series [1] in a line: Critical micellar concentration was measured in water by the dye solubilization method. To be noted: buffer. The class given is ADME.
Series [2] can be described thus: pKa value was evaluated. The class given is physicochemical.

For orientation: pKa means the pH at which an ionisable group is half protonated. In series [1], `C[C@H]([C@@H]1C[C@@H]1C(=O)O)[C@H]1CC[C@H]2[C@@H]3[C@@H](O)CC4C[C@H](O)CC[C@]4(C)[C@H]3CC[C@]12C` (some centres undefined) showed a CMC of 14 mM. Besides, the pKa in series [2] was determined as 5.02.

With `C[C@H]([C@H]1C[C@H]1C(=O)O)[C@H]1CC[C@H]2[C@@H]3[C@@H](O)CC4C[C@H](O)CC[C@]4(C)[C@H]3CC[C@]12C` (some centres undefined), the CMC in series [1] is given as 10 mM. Also, the pKa in series [2] was determined as 5.04.

Consider `CC(C1CC[C@H]2[C@@H]3[C@@H](O)CC4C[C@H](O)CCC4(C)[C@H]3CCC12C)[C@@H]1C[C@@H]1C(=O)O` (some centres undefined), for which the CMC in series [1] was found to be 25 mM. Further, the pKa in series [2] turned out to be 5.04.

Consider `CC(C1CC[C@H]2[C@@H]3[C@@H](O)CC4C[C@H](O)CCC4(C)[C@H]3CCC12C)[C@H]1C[C@H]1C(=O)O` (some centres undefined), for which the CMC in series [1] is reported as 20 mM. For the same compound, the pKa in series [2] is 5.05.

In the case of `C[C@H](CCC(=O)O)[C@H]1CC[C@H]2[C@@H]3[C@@H](O)C[C@@H]4C[C@H](O)CC[C@]4(C)[C@H]3CC[C@]12C` [URSODIOL], the CMC in series [1] came out at 19 mM.
